Experimental data reported in publication PMC10999543, “Identification of kinase modulators as host-directed therapeutics against intracellular methicillin-resistant Staphylococcus aureus” (Frontiers in Cellular and Infection Microbiology, 2024).
Like-named read-outs stand apart in the source and are kept apart here.

Assays:
HeLa cells = experiment: Compound screen by flow cytometry: HeLa cell count as surrogate readout of cell viability (z-scoreHeLa); format: cell-based, human; settings: for cell count rep 1 / z-scoreHeLa rep 1: replicate 1; for cell count rep 2 / z-scoreHeLa rep 2: replicate 2; for cell count rep 3 / z-scoreHeLa rep 3: replicate 3; for z-scoreHeLa mean: mean of 3 replicates
Outline: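 HeLa cells were infected with GFP-MRSA (mean MOI 6.8 ± 4.6) for 1 h, and extracellular bacteria were killed with 30 µg/ml gentamicin. Cells were then incubated overnight with kinase inhibitors in 5 µg/ml gentamicin, in triplicate against DMSO controls. Flow-cytometric cell count served as a viability surrogate, expressed as a plate z-score.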

intracellular MRSA = format: cell-based, Staphylococcus aureus; settings: for %GFP+ rep 1 / z-scoreMRSA+ rep 1: replicate 1; for %GFP+ rep 2 / z-scoreMRSA+ rep 2: replicate 2; for %GFP+ rep 3 / z-scoreMRSA+ rep 3: replicate 3; for z-scoreMRSA+ mean: mean of 3 replicates
Outline: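 HeLa cells infected with GFP-MRSA (MOI ~6.8), gentamicin-cleared, then incubated overnight at 37°C with inhibitors plus 5 µg/ml gentamicin; DMSO as negative control, triplicates. Flow cytometry gave % GFP-positive cells and cell count (viability surrogate); hits by plate z-score (MRSA ≤ -2, HeLa count ≥ -3).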

[1] = PKIS compound screen raw data, HeLa cell count
[2] = PKIS compound screen, HeLa cell count
[3] = PKIS compound screen, Yes/No call on z-scoreHeLa
[4] = PKIS compound screen raw data, MRSA-infected HeLa cells
[5] = PKIS compound screen, MRSA-infected HeLa cells
[6] = PKIS compound screen, Yes/No call (effect without cell death)
[7] = PKIS compound screen, Yes/No call on z-scoreMRSA+
[8] = PKIS compound screen, Yes/No call
[9] = PKIS compounds raw data, HeLa cell count
[10] = PKIS compounds raw data, MRSA-infected HeLa cells
[11] = compound screen, HeLa cell count
[12] = Yes/No: effect without cell death
[13] = compound screen, MRSA-infected HeLa cells

CN(C)CCCNc1nccc(-c2c(-c3ccc(F)cc3)nn3cc(C(F)(F)F)ccc23)n1 [GW618013A]
cell count rep 1 (HeLa cells; [1]): 23652
cell count rep 2 (HeLa cells; [1]): 24495
cell count rep 3 (HeLa cells; [1]): 45248
z-scoreHeLa mean (HeLa cells; [2]): -0.21
z-scoreHeLa rep 1 (HeLa cells; [2]): 0.54
z-scoreHeLa rep 2 (HeLa cells; [2]): -1.92
z-scoreHeLa rep 3 (HeLa cells; [2]): 0.75
cell death (HeLa cells; [3]): No
%GFP+ rep 1 (intracellular MRSA; [4]): 10.7%
%GFP+ rep 2 (intracellular MRSA; [4]): 13.4%
%GFP+ rep 3 (intracellular MRSA; [4]): 14.0%
z-scoreMRSA+ mean (intracellular MRSA; [5]): -1.86
z-scoreMRSA+ rep 1 (intracellular MRSA; [5]): -2.27
z-scoreMRSA+ rep 2 (intracellular MRSA; [5]): -1.54
z-scoreMRSA+ rep 3 (intracellular MRSA; [5]): -1.76
hit (intracellular MRSA; [6]): No
effect (intracellular MRSA; [7]): No

COc1cccc(-n2ncc3c(N/N=C/c4ccncc4)ncnc32)c1 [GW784752X]
cell death (HeLa cells; [8]): No
z-scoreHeLa mean (HeLa cells; PKIS compound screen): -0.20
z-scoreHeLa rep 1 (HeLa cells; PKIS compound screen): -0.77
z-scoreHeLa rep 2 (HeLa cells; PKIS compound screen): -0.44
z-scoreHeLa rep 3 (HeLa cells; PKIS compound screen): 0.60
cell count rep 1 (HeLa cells; [9]): 3928
cell count rep 2 (HeLa cells; [9]): 3683
cell count rep 3 (HeLa cells; [9]): 8225
effect (intracellular MRSA; [8]): No
hit (intracellular MRSA; [6]): No
z-scoreMRSA+ mean (intracellular MRSA; PKIS compound screen): -0.71
z-scoreMRSA+ rep 1 (intracellular MRSA; PKIS compound screen): -0.44
z-scoreMRSA+ rep 2 (intracellular MRSA; PKIS compound screen): -0.63
z-scoreMRSA+ rep 3 (intracellular MRSA; PKIS compound screen): -1.06
%GFP+ rep 1 (intracellular MRSA; [10]): 11.8%
%GFP+ rep 2 (intracellular MRSA; [10]): 11.6%
%GFP+ rep 3 (intracellular MRSA; [10]): 12.3%

CN(C)CCOc1ccc(-c2cc(-c3ccc(Cl)c(O)c3)c(-c3ccncc3)[nH]2)cc1.Cl.Cl [SB-684387-B]
cell count rep 1 (HeLa cells; [1]): 7005
cell count rep 2 (HeLa cells; [1]): 6368
cell count rep 3 (HeLa cells; [1]): 7752
cell death (HeLa cells; Yes/No call from z-scoreHeLa): No
z-scoreHeLa mean (HeLa cells; [11]): 1.70
z-scoreHeLa rep 1 (HeLa cells; [11]): 1.91
z-scoreHeLa rep 2 (HeLa cells; [11]): 1.59
z-scoreHeLa rep 3 (HeLa cells; [11]): 1.59
%GFP+ rep 1 (intracellular MRSA; [4]): 13.0%
%GFP+ rep 2 (intracellular MRSA; [4]): 10.9%
%GFP+ rep 3 (intracellular MRSA; [4]): 11.1%
effect (intracellular MRSA; Yes/No call from z-scoreMRSA+): Yes
hit (intracellular MRSA; [12]): Yes
z-scoreMRSA+ mean (intracellular MRSA; [13]): -3.01
z-scoreMRSA+ rep 1 (intracellular MRSA; [13]): -2.86
z-scoreMRSA+ rep 2 (intracellular MRSA; [13]): -2.84
z-scoreMRSA+ rep 3 (intracellular MRSA; [13]): -3.32

COc1ccc(CNC(=O)NC2CCN(c3ccnc(Nc4ccc(F)cc4)n3)CC2)cc1 [GSK1379788A]
cell count rep 1 (HeLa cells; [1]): 6376
cell count rep 2 (HeLa cells; [1]): 5935
cell count rep 3 (HeLa cells; [1]): 7721
cell death (HeLa cells; Yes/No call from z-scoreHeLa): No
z-scoreHeLa mean (HeLa cells; [11]): 1.43
z-scoreHeLa rep 1 (HeLa cells; [11]): 1.46
z-scoreHeLa rep 2 (HeLa cells; [11]): 1.26
z-scoreHeLa rep 3 (HeLa cells; [11]): 1.57
%GFP+ rep 1 (intracellular MRSA; [4]): 25.3%
%GFP+ rep 2 (intracellular MRSA; [4]): 23.5%
%GFP+ rep 3 (intracellular MRSA; [4]): 21.9%
effect (intracellular MRSA; Yes/No call from z-scoreMRSA+): No
hit (intracellular MRSA; [12]): No
z-scoreMRSA+ mean (intracellular MRSA; [13]): 0.044
z-scoreMRSA+ rep 1 (intracellular MRSA; [13]): 0.00598
z-scoreMRSA+ rep 2 (intracellular MRSA; [13]): 0.22
z-scoreMRSA+ rep 3 (intracellular MRSA; [13]): -0.09

O=c1cc(N2CCOCC2)nc2n(Cc3cccc(Cl)c3Cl)c(C3CC3)nn12 [GSK2358994A]
cell count rep 1 (HeLa cells; [1]): 42747
cell count rep 2 (HeLa cells; [1]): 35107
cell count rep 3 (HeLa cells; [1]): 37884
z-scoreHeLa mean (HeLa cells; [2]): 2.50
z-scoreHeLa rep 1 (HeLa cells; [2]): 2.13
z-scoreHeLa rep 2 (HeLa cells; [2]): 1.69
z-scoreHeLa rep 3 (HeLa cells; [2]): 3.69
cell death (HeLa cells; [3]): No
%GFP+ rep 1 (intracellular MRSA; [4]): 12.1%
%GFP+ rep 2 (intracellular MRSA; [4]): 13.2%
%GFP+ rep 3 (intracellular MRSA; [4]): 14.9%
z-scoreMRSA+ mean (intracellular MRSA; [5]): -1.74
z-scoreMRSA+ rep 1 (intracellular MRSA; [5]): -1.78
z-scoreMRSA+ rep 2 (intracellular MRSA; [5]): -1.70
z-scoreMRSA+ rep 3 (intracellular MRSA; [5]): -1.73
hit (intracellular MRSA; [6]): No
effect (intracellular MRSA; [7]): No

Fc1cccc(COc2ccc(Nc3ncnc4sc(-c5ccc[nH]5)cc34)cc2Cl)c1 [GW707818B]
cell count rep 1 (HeLa cells; [9]): 5915
cell count rep 2 (HeLa cells; [9]): 6344
cell count rep 3 (HeLa cells; [9]): 7651
cell death (HeLa cells; Yes/No call from z-scoreHeLa): No
z-scoreHeLa mean (HeLa cells; [11]): 1.41
z-scoreHeLa rep 1 (HeLa cells; [11]): 1.13
z-scoreHeLa rep 2 (HeLa cells; [11]): 1.57
z-scoreHeLa rep 3 (HeLa cells; [11]): 1.52
%GFP+ rep 1 (intracellular MRSA; [10]): 24.9%
%GFP+ rep 2 (intracellular MRSA; [10]): 22.3%
%GFP+ rep 3 (intracellular MRSA; [10]): 25.1%
effect (intracellular MRSA; Yes/No call from z-scoreMRSA+): No
hit (intracellular MRSA; [12]): No
z-scoreMRSA+ mean (intracellular MRSA; [13]): 0.24
z-scoreMRSA+ rep 1 (intracellular MRSA; [13]): -0.09
z-scoreMRSA+ rep 2 (intracellular MRSA; [13]): -0.0758
z-scoreMRSA+ rep 3 (intracellular MRSA; [13]): 0.87

Cc1c2ccc(N(C)c3ccnc(Nc4cccc(S(N)(=O)=O)c4)n3)cc2nn1Cc1ccccc1 [GW787226A]
cell count rep 1 (HeLa cells; [1]): 1356
cell count rep 2 (HeLa cells; [1]): 1496
cell count rep 3 (HeLa cells; [1]): 1271
cell death (HeLa cells; Yes/No call from z-scoreHeLa): No
z-scoreHeLa mean (HeLa cells; [11]): -2.28
z-scoreHeLa rep 1 (HeLa cells; [11]): -2.16
z-scoreHeLa rep 2 (HeLa cells; [11]): -2.16
z-scoreHeLa rep 3 (HeLa cells; [11]): -2.51
%GFP+ rep 1 (intracellular MRSA; [4]): 21.6%
%GFP+ rep 2 (intracellular MRSA; [4]): 20.6%
%GFP+ rep 3 (intracellular MRSA; [4]): 18.5%
effect (intracellular MRSA; Yes/No call from z-scoreMRSA+): No
hit (intracellular MRSA; [12]): No
z-scoreMRSA+ mean (intracellular MRSA; [13]): -0.82
z-scoreMRSA+ rep 1 (intracellular MRSA; [13]): -0.86
z-scoreMRSA+ rep 2 (intracellular MRSA; [13]): -0.49
z-scoreMRSA+ rep 3 (intracellular MRSA; [13]): -1.11

Oc1ccc2ncnc(Nc3ccc(OCc4ccccc4)cc3)c2c1 [GI262866A]
cell count rep 1 (HeLa cells; [9]): 5744
cell count rep 2 (HeLa cells; [9]): 4904
cell count rep 3 (HeLa cells; [9]): 6919
cell death (HeLa cells; Yes/No call from z-scoreHeLa): No
z-scoreHeLa mean (HeLa cells; [11]): 0.84
z-scoreHeLa rep 1 (HeLa cells; [11]): 1.00
z-scoreHeLa rep 2 (HeLa cells; [11]): 0.46
z-scoreHeLa rep 3 (HeLa cells; [11]): 1.06
%GFP+ rep 1 (intracellular MRSA; [10]): 22.5%
%GFP+ rep 2 (intracellular MRSA; [10]): 22.3%
%GFP+ rep 3 (intracellular MRSA; [10]): 21.5%
effect (intracellular MRSA; Yes/No call from z-scoreMRSA+): No
hit (intracellular MRSA; [12]): No
z-scoreMRSA+ mean (intracellular MRSA; [13]): -0.31
z-scoreMRSA+ rep 1 (intracellular MRSA; [13]): -0.65
z-scoreMRSA+ rep 2 (intracellular MRSA; [13]): -0.0758
z-scoreMRSA+ rep 3 (intracellular MRSA; [13]): -0.21

CC(=O)N1CCN(c2ccc(Nc3nccc(-c4sc(C(C)C)nc4-c4cccc(NS(=O)(=O)c5cccc(Cl)c5)c4)n3)cn2)CC1 [GSK1660437A]
cell count rep 1 (HeLa cells; [1]): 4478
cell count rep 2 (HeLa cells; [1]): 3506
cell count rep 3 (HeLa cells; [1]): 4504
cell death (HeLa cells; Yes/No call from z-scoreHeLa): No
z-scoreHeLa mean (HeLa cells; [11]): -0.33
z-scoreHeLa rep 1 (HeLa cells; [11]): 0.09
z-scoreHeLa rep 2 (HeLa cells; [11]): -0.61
z-scoreHeLa rep 3 (HeLa cells; [11]): -0.46
%GFP+ rep 1 (intracellular MRSA; [4]): 26.9%
%GFP+ rep 2 (intracellular MRSA; [4]): 24.1%
%GFP+ rep 3 (intracellular MRSA; [4]): 23.6%
effect (intracellular MRSA; Yes/No call from z-scoreMRSA+): No
hit (intracellular MRSA; [12]): No
z-scoreMRSA+ mean (intracellular MRSA; [13]): 0.39
z-scoreMRSA+ rep 1 (intracellular MRSA; [13]): 0.38
z-scoreMRSA+ rep 2 (intracellular MRSA; [13]): 0.36
z-scoreMRSA+ rep 3 (intracellular MRSA; [13]): 0.42
